Results published in ChEMBL document CHEMBL4177711, “Synthesis, in vitro and in silico evaluation of novel trans-stilbene analogues as potential COX-2 inhibitors” (Bioorg Med Chem, 2018).

Tests used:
[1] = target: T1, COX1 (Prostaglandin G/H synthase 1) (Ovis aries, UniProt P05979); test: Inhibition of ovine COX1 assessed as reduction in PGF2alpha level at 100 uM using arachidonic acid as substrate preincubated for 10 mins followed by substrate addition by ELISA relative to control; settings: sheep, ovine COX1 enzyme, probe arachidonic acid
T1 sequence (P05979 whole entry): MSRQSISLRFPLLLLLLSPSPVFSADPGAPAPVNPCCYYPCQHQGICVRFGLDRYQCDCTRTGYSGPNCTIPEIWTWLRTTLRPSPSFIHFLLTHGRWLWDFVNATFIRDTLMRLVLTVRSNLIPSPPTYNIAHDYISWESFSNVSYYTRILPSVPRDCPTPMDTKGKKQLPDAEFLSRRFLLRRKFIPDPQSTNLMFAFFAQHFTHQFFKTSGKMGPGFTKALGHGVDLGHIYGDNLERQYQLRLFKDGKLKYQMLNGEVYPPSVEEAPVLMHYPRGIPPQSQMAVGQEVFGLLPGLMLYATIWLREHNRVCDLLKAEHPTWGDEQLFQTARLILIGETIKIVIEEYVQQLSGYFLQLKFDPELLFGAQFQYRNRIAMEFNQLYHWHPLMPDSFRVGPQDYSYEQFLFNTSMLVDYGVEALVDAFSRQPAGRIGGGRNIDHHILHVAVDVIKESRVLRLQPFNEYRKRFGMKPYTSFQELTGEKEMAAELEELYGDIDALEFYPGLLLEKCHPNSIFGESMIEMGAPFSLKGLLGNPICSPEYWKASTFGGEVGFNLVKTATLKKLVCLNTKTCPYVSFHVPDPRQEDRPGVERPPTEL

[2] = target: T2, Prostaglandin G/H synthase 2 (Homo sapiens) (UniProt P35354); test: Inhibition of human COX2 assessed as reduction in PGF2alpha level at 100 uM using arachidonic acid as substrate preincubated for 10 mins followed by substrate addition by ELISA relative to control
T2 sequence (whole entry): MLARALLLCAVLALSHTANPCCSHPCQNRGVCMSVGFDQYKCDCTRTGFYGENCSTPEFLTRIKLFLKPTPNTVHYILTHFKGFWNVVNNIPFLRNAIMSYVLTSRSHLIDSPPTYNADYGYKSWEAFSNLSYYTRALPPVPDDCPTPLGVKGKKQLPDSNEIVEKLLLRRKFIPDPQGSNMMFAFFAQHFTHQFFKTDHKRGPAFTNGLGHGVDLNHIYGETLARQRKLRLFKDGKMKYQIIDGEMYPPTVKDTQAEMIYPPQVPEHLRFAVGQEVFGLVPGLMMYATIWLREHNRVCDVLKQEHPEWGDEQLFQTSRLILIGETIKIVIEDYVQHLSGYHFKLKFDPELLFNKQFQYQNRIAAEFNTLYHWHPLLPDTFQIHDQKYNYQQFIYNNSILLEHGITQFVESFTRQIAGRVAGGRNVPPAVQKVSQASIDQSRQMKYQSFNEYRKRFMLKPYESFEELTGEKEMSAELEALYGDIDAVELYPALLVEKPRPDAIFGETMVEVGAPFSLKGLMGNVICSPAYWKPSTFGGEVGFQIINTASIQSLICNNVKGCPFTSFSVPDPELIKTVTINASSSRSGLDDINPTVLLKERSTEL

[3] = target: T3, Prostaglandin G/H synthase 1 (Ovis aries, UniProt P05979); test: Inhibition of ovine COX1 assessed as reduction in PGF2alpha level using arachidonic acid as substrate preincubated for 10 mins followed by substrate addition by ELISA
T3 sequence (P05979 whole entry): T1 sequence (P05979 whole entry)

[4] = target: T4, Prostaglandin G/H synthase 2 (Homo sapiens, UniProt P35354); test: Inhibition of human COX2 assessed as reduction in PGF2alpha level using arachidonic acid as substrate preincubated for 10 mins followed by substrate addition by ELISA
T4 sequence (P35354 whole entry): T2 sequence (whole entry)

[5] = Selectivity index, ratio of IC50 for ovine COX1 to IC50 for human COX2
MCF7 [6] = test: Antiproliferative activity against human MCF7 cells up to 100 uM after 72 hrs by MTT assay relative to control; assay type: functional
MCF7 [7] = test: Antiproliferative activity against human MCF7 cells after 72 hrs by MTT assay; settings: MCF7, 72 h
[8] = target: T2, Prostaglandin G/H synthase 2 (Homo sapiens); test: Inhibition of COX2 in human MCF7 cells assessed as reduction in PGE2 level after 72 hrs by ELISA; assay type: cell-based
[9] = target: T2, Prostaglandin G/H synthase 2 (Homo sapiens); test: Inhibition of COX2 in human MCF7 cells assessed as reduction in PGE2 level at 6.25 uM after 72 hrs by ELISA relative to control; assay type: cell-based
[10] = target: T2, Prostaglandin G/H synthase 2 (Homo sapiens); test: Inhibition of COX2 in human MCF7 cells assessed as reduction in PGE2 level at 12.5 uM after 72 hrs by ELISA relative to control; assay type: cell-based
[11] = Solubility of the compound in DMEM culture medium at >12.5 uM; assay type: physicochemical

SMILES	inhibition at 100 µM [1] [%]	inhibition [2] [%]	further results
CCOc1cccc(/C=C/c2ccc([N+](=O)[O-])cc2)c1	2.42	23.4	–
COC(=O)COc1ccc(/C=C/c2ccc([N+](=O)[O-])cc2)cc1	59.6	66.3	IC50 [3]: 40.8 µM; IC50 [4]: 7.46 µM; Ratio IC50 [5]: 4.13
Oc1ccc(/C=C/c2ccncc2)cc1	17.3	8.88	–
COc1cc(/C=C/c2ccc([N+](=O)[O-])cc2)cc(OC)c1OC	–	–	IC50 [3]: 2.67 µM; IC50 [4]: 2.17 µM; Ratio IC50 [5]: 1.23; Activity (MCF7 [6]): 30%
CCOc1ccc(/C=C/c2ccc([N+](=O)[O-])cc2)cc1	54.6	77.4	IC50 [3]: 85 µM; IC50 [4]: 4.02 µM; Ratio IC50 [5]: 21.2
COC(=O)COc1ccc(/C=C/c2ccc(OCC(=O)OC)cc2)cc1	28.5	44.5	–
Oc1ccc(/C=C/c2cc[n+](Cc3cccc(Cl)c3)cc2)cc1	11.2	21.9	–
COC(=O)COc1ccc(/C=C/c2ccc(Cl)cc2)cc1	59.3	71.8	IC50 [3]: 41 µM; IC50 [4]: 7.52 µM; Ratio IC50 [5]: 5.45
COc1ccc(/C=C/c2ccc([N+](=O)[O-])cc2)cc1OC	–	–	IC50 [3]: 0.659 µM; IC50 [4]: 4.69 µM; Ratio IC50 [5]: 0.14
CCOc1ccc(/C=C/c2ccccc2)cc1	32.3	40.8	–
Cc1ccc(-c2cc(C(F)(F)F)nn2-c2ccc(S(N)(=O)=O)cc2)cc1 [CELECOXIB]	–	–	IC50 (MCF7 [7]): 49.7 µM
O=[N+]([O-])c1ccc(/C=C/c2cc(O)c(O)c(O)c2)cc1	–	–	IC50 [3]: 17.5 µM; IC50 [4]: 0.279 µM; Ratio IC50 [5]: 62.8; inhibition [8]: Dose-dependent effect; inhibition [9]: 24.1%; inhibition [10]: 33.9%; solubility [11]: Insoluble; Activity (MCF7 [6]): 30%
O=[N+]([O-])c1ccc(/C=C/c2ccccc2)cc1	16.3	35	–
CC(=O)Oc1ccc(/C=C/c2ccc(OC(C)=O)cc2)cc1	3.16	23.4	–
O=[N+]([O-])c1ccc(/C=C/c2ccc(O)cc2)cc1	22.2	37.1	–
Oc1ccc(/C=C/c2cc[n+](Cc3ccccc3Cl)cc2)cc1	1.57	10.2	–
CCOc1ccc(/C=C/c2ccc([N+](=O)[O-])cc2[N+](=O)[O-])cc1	14.1	40.4	–
CC(=O)Oc1ccc(/C=C/c2ccccc2)cc1	20.5	39.9	–
Oc1ccc(/C=C/c2cc[n+](Cc3ccc(Cl)cc3)cc2)cc1	15.7	5.38	–
O=[N+]([O-])c1ccc(/C=C/c2ccc(O)cc2)c([N+](=O)[O-])c1	6.09	29	–
CCOc1cccc(/C=C/c2ccc([N+](=O)[O-])cc2[N+](=O)[O-])c1	15.4	27.5	–

Now from value to compound, other results behind:

inhibition at 100 µM [1] [%]	inhibition [2] [%]	SMILES	further results
6.8	14.3	Oc1ccc(/C=C/c2ccc(Br)cc2)cc1	–
9.64	3.73	Oc1ccc(/C=C/c2ccc(Cl)cc2)cc1	–
39.2	12.3	CCOc1ccc(/C=C/c2ccc(Cl)cc2)cc1	–
28.3	34.1	CC(=O)Oc1cccc(/C=C/c2ccc([N+](=O)[O-])cc2[N+](=O)[O-])c1	–
3.36	15.7	O=[N+]([O-])c1ccc(/C=C/c2ccc(OCc3ccccc3)cc2)cc1	–
23.1	20.4	Oc1cccc(/C=C/c2ccncc2)c1	–
9.71	8.56	Oc1ccccc1/C=C/c1ccncc1	–
4.92	11.1	Oc1ccc(/C=C/c2ccc(O)cc2)cc1 [TRANS-4,4'-DIHYDROXYSTILBENE]	–
